Experimental findings from publication PMC4900628, “Critical Evaluation of P2X7 Receptor Antagonists in Selected Seizure Models” (PLoS ONE, 2016) are described below.

For orientation: IC50 means the concentration that inhibits the measured activity by half.

The target of one series is T1, rat P2X7R (Rattus norvegicus, UniProt Q64663).
T1 construct: expressed in transfected cells; host or cells: HEK293 Flp-In T-REx (HEKrP2X7), tetracycline-induced
T1 sequence (Q64663 1-595): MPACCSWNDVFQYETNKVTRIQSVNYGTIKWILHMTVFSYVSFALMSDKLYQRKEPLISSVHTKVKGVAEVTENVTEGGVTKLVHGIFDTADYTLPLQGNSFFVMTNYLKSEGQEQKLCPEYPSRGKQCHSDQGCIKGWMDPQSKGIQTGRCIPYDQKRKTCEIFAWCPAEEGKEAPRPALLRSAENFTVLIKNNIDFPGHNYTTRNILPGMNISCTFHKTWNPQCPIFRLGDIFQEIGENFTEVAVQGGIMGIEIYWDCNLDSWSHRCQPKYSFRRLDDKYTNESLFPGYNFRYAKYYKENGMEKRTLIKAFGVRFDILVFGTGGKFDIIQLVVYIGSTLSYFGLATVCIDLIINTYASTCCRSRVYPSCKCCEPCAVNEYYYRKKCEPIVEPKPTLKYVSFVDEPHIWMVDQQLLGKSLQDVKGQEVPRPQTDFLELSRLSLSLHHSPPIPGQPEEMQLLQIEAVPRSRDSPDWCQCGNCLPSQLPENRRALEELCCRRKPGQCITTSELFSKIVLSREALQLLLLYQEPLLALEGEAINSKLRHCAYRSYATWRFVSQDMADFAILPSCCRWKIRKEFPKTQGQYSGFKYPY
The series can be described thus: fluorometric Ca2+ assay (ATP-induced [Ca2+]i response) in HEKrP2X7 cells. The note with it: for IC50: HEKrP2X7 cells, fluo-4, 1 mM ATP, read-out: Potency IC50 ± SEM, Rat P2X7R. The format is cell-based. Here is the method: Cells were grown in a humidified incubator at 37°C in an atmosphere supplemented with 5% CO2. […] HEK293mP2X7 were cultured in DMEM under similar conditions as described above, but containing 100 μg/ml zeocin (Invitrogen). […] Expression of the transgene was induced by supplementing the medium with 1 μg/ml tetracycline (Sigma-Aldrich, Taufkirchen, Germany) 24 h prior to the experiments. All fluorometric Ca^2+ assays in cell suspensions were performed in 384-microwell plates (Corning, No. 3655, Lowell, MA, USA) with a fluorescence-imaging microplate reader (POLARstar Omega, BMG Labtech, Offenburg, Germany) (for details, see [61, 68]). […] Microwell plates were repetitively scanned every 16 s in the fast scanning mode of the device. […] Data were normalized to the baseline values before ATP application (F/F0). […] ATP-solution was freshly prepared in Mg^2+-free HBS solution and adjusted to pH 7.4. Aliquots of stock solutions were stored at -20°C and freshly diluted with the appropriate HBS solution. […] Results are expressed as mean ± SEM. […] In the PTZ-T, the number of animals in the group with clonic seizures and the latency time were analysed using Fisher's exact probability test and the Mann-Whitney rank sum test, respectively. For multiple comparisons of the latency time a one-way ANOVA with the Holm-Sidak post hoc test was used. The influence of AFC on the plasma and brain concentrations of the antiepileptic drugs was statistical compared using the same procedure. In the PTZ-kindling model, the mean seizure stage within a group was calculated in relation to the number of PTZ-injections. Statistical comparison between vehicle- and compound-treated groups in this model was performed with two-way repeated measures ANOVA, followed by the Holm-Sidak post hoc test. […] In fully kindled rats, the calculated mean seizure stage within a group after vehicle- and compound-treatment were compared using a paired t-test. P < 0.05 was the accepted minimum level of significance.

Series [1] can be described thus: Plasma and brain concentration in rats (after PTZ-kindling). The format is in vivo. The note with it: for concentration at 45 min / Kp at 0.75 h: ip; for Kp at 0.75 h: 45 min. Here is the method:
One day after kindling procedure, selected rats (groups with n ≥ 5) were again pre-treated with the compounds of interest and sacrificed at the assumed peak times of brain concentration by CO2 inhalation. Blood was collected intracardially by heart centesis via glass pipettes supplemented with heparin-Na (ratiopharm, Ulm, Germany; 10μl of 5.000 I.U./ml) and separated by centrifuging (1500xg for 10 min) at 6–8°C. The plasma was stored at -20°C in plastic tubes. After blood sample collection, rats were decapitated and brains were quickly dissected. After removing the adherent blood by tissue paper and cutting off the cerebellum, the samples were fresh frozen using liquid nitrogen. Brain tissue was stored at -80°C and delivered to the different laboratories on dry ice. For mice (groups with n = 6), a similar procedure was used for the preparation of plasma and brain samples. In experiments in which AFC was co-administered with carbamazepine or ethosuximide, drug concentrations in plasma and brain were estimated to detect potential pharmacokinetic interactions.
Samples from experiments with AFC were analysed at the Lead Discovery Center (Dortmund, Germany). Briefly, AFC, carbamazepine and ethosuximide were extracted from plasma and homogenized brain by protein precipitation using acetonitrile. Resulting filtrates were analysed by liquid chromatography tandem-mass spectrometry (LC-MS/MS) using a Prominence UFLC system (Shimadzu, Duisburg, Germany) coupled to a QTrap 5500 instrument (ABSciex, Darmstadt, Germany). The compounds were separated on a Zorbax Eclipse Plus C18 column (Agilent Technologies, Santa Clara, CA, USA) with an acetonitrile/water gradient containing 0.1% formic acid as solvent. Chromatographic conditions and mass spectrometer parameters were optimized for each analyte. Plasma and brain concentrations of the compounds were calculated by means of a standard curve.
Plasma and brain samples from experiments with JNJ-47965567 were quantified at the Neuroscience Therapeutic Area, Janssen Research & Development (San Diego, CA, USA) using an API 4000 MS/MS system (Applied Biosystems, Concord, ON, Canada) interfaced with an Agilent 1100 Series HPLC (Agilent Technologies). To measure the percentage of P2X7R brain occupancy of JNJ-47965567, ex vivo receptor binding autography was performed as recently described. Briefly, 20 μm-thick hippocampal slices were prepared and P2X7R radioligand binding was determined at room temperature with 10 nM [^3H] JNJ-54232334 (Janssen) in 50 mM Tris-HCl incubation buffer containing 0.1% bovine serum albumin. The non-specific binding was measured using adjacent sections incubated in the additional presence of 100 μM A-740003 (Tocris Bioscience, Bristol UK). Sections were incubated for 1 min, washed in ice-cold incubation buffer (4 times, 5 min each), followed by two dips in deionized water and rapidly dry under a stream of cold air before acquisition. Quantitative analysis was performed using the Tracer ß-Imager with M3 Vision software (Biospace Lab, Paris, France). Ex vivo receptor labelling was expressed as the percentage of receptor labelling in corresponding brain areas of vehicle-treated control animals.

Like-named read-outs stand apart in the source and are kept apart here.

As for `CCOc1ccc(Nc2ccc(/C(=C3C=C/C(=[N+](/CC)Cc4cccc(S(=O)(=O)[O-])c4)C=C/3C)c3ccc(N(CC)Cc4cccc(S(=O)(=O)O)c4)cc3C)cc2)cc1` [Brilliant Blue G], at rat P2X7R, the 50% inhibitory concentration (IC50) was 0.05 ± 0.01 µM. Moreover, the inhibition at 0.02 µM at rat P2X7R (read-out: inhibition of P2X7R / ATP-induced Ca2+ response corresponding to the achieved rat brain concentration) was roughly 30%. In addition, the mean brain concentration in series [1] (50 mg/kg i.p., 45 min before, n = 7) is 20 ± 2 nM. For the same molecule, the concentration at 45 min amounted to 20 nM in series [1] (rat, brain, 50 mg/kg i.p., 45 min after injection, read-out: rat brain concentration) and 1600 ± 300 nM in series [1] (rat, plasma, 50 mg/kg i.p., 45 min before, n = 7, read-out: mean blood plasma concentration). Besides, in series [1] (rat, brain, 50 mg/kg, 50 mg/kg i.p., read-out: brain to plasma ratio), the Kp at 0.75 h worked out at 0.01.
On to `O=C(NCC1(N2CCN(c3ccccc3)CC2)CCOCC1)c1cccnc1Sc1ccccc1` [JNJ-47965567, N-[[4-(4-phenyl-piperazin-1-yl)tetrahydro-2H-pyran-4-yl]-methyl]-2-(phenyl-thio) nicotinamide], for which, on rat P2X7R, the concentration for half-maximal inhibition (IC50) stood at 0.003 ± 0.0001 µM. Also, the mean brain concentration in series [1] (15 mg/kg s.c., 30 min before, n = 5, listed as JNJ, 15 mg/kg) worked out at 5000 ± 1100 nM. Also, the concentration at 30 min in series [1] (rat, brain, sc, 15 mg/kg s.c., 30 min before, n = 5, read-out: mean brain concentration) is 5000 nM; in series [1] (rat, plasma, sc, 15 mg/kg s.c., 30 min before, n = 5, read-out: mean blood plasma concentration), 4000 ± 1000 nM. Also, the Kp at 0.5 h in series [1] (rat, brain, sc, 15 mg/kg, 15 mg/kg s.c., 30 min, read-out: brain to plasma ratio) came to 1.2.
`Cc1c(S(=O)(=O)[O-])oc2c1C(=O)C(=O)c1c-2ccc2c1CCCC2(C)C.[Na+]` [Tanshinone TIIAS, tanshinone IIS sulfonic sodium]: the IC50 at rat P2X7R was no less than 30 µM. Also, the mean brain concentration in series [1] (30 mg/kg i.p., 45 min before, n = 5) was 500 ± 100 nM. The concentration at 45 min in series [1] (rat, brain, 30 mg/kg i.p., after 45 min, read-out: rat brain concentration) turned out to be 500 nM; in series [1] (rat, plasma, 30 mg/kg i.p., 45 min before, n = 5, read-out: mean blood plasma concentration), 31100 ± 5900 nM. In addition, in series [1] (rat, brain, 30 mg/kg, 30 mg/kg i.p., read-out: brain to plasma ratio), the Kp at 0.75 h was 0.02.
